Experimental data from ChEMBL document CHEMBL1144365, “Benzodipyrazoles: a new class of potent CDK2 inhibitors” (Bioorg Med Chem Lett, 2005).

Biological target: not listed separately
Assay: Inhibition of Glycogen synthase kinase-3 beta

SMILES	IC50 [nM]
CC(C)CC1Cc2c[nH]nc2-c2c[nH]nc21 (configuration not stated)	> 10000
Cc1ccc(-n2nc(C(N)=O)c3ccc4[nH]ncc4c32)cc1	23
Cc1ccc(-n2nc(C(N)=O)c3c2-c2c[nH]nc2CC3)cc1	460

Biological target: Cyclin-dependent kinase 2/cyclin A (Homo sapiens, UniProt P24941)
Description: Inhibition of Cyclin A-cyclin-dependent kinase 2

SMILES	IC50 [nM]
CCOC(=O)c1nn(-c2ccc(OC)cc2)c2c1ccc1[nH]ncc12	7500
COc1ccc(-n2nc(C(=O)NN)c3c2-c2cn[nH]c2CC3)cc1	2100
NC(=O)c1nn(-c2ccc(Cl)cc2)c2c1CCc1[nH]ncc1-2	160
CNS(=O)(=O)c1ccc(-n2nc(C(N)=O)c3ccc4[nH]ncc4c32)cc1	20
CC(C)CC1Cc2c[nH]nc2-c2c[nH]nc21 (configuration not stated)	87
CC(=O)c1nn(-c2ccc(C)cc2)c2c1CCc1[nH]ncc1-2	900
CN1CCN(S(=O)(=O)c2ccc(-n3nc(C(N)=O)c4c3-c3cn[nH]c3CC4)cc2)CC1	> 10000
CCCCNS(=O)(=O)n1nc(C(N)=O)c2c1-c1c[nH]nc1CC2	210
CS(=O)(=O)c1ccc(-n2nc(C(N)=O)c3c2-c2cn[nH]c2CC3)cc1	30
NC(=O)c1nn(-c2ccc(C(F)(F)F)cc2)c2c1CCc1[nH]ncc1-2	80
CCOC(=O)c1nn(-c2ccc(C)cc2)c2c1CCc1[nH]ncc1-2	8500
CN1CCN(S(=O)(=O)c2ccc(-n3nc(C(N)=O)c4ccc5[nH]ncc5c43)cc2)CC1	150
COc1ccc(-n2nc(C#N)c3ccc4[nH]ncc4c32)cc1	1750
NC(=O)c1nn(-c2ccc(C3=NCC=N3)cc2)c2c1CCc1n[nH]cc1-2	250
COc1ccc(-n2nc(C(=O)O)c3ccc4[nH]ncc4c32)cc1	210
Cc1cccc(-n2nc(C(N)=O)c3ccc4[nH]ncc4c32)c1	9
CCOC(=O)c1nn(-c2ccc(OC)cc2)c2c1CCc1[nH]ncc1-2	8100

SMILES	IC50 [nM]
N#Cc1ccc(-n2nc(C(N)=O)c3c2-c2cn[nH]c2CC3)cc1	190
COc1ccc(-n2nc(C(=O)O)c3c2-c2cn[nH]c2CC3)cc1	2100
CCCCNS(=O)(=O)c1ccc(-n2nc(C(=O)OCC)c3c2-c2cn[nH]c2CC3)cc1	10000
CCCCNS(=O)(=O)n1nc(C(=O)NC)c2ccc3[nH]ncc3c21	610
CNS(=O)(=O)c1ccc(-n2nc(C(N)=O)c3c2-c2cn[nH]c2CC3)cc1	40
NC(=O)c1nn(-c2ccc(OC(F)(F)F)cc2)c2c1CCc1[nH]ncc1-2	510
C=CCONC(=O)c1nn(S(=O)(=O)NCCCC)c2c1CCc1n[nH]cc1-2	2850
NC(=O)c1nn(CCO)c2c1CCc1[nH]ncc1-2	1150
C=CCONC(=O)c1nn(-c2ccc(OC)cc2)c2c1CCc1[nH]ncc1-2	4500
NC(=O)c1nn(-c2cccnc2)c2c1CCc1[nH]ncc1-2	1600
NC(=O)c1nn(-c2ccc(C3=NCC=N3)cc2)c2c1ccc1[nH]ncc12	75
CCCCNS(=O)(=O)n1nc(C(=O)NC)c2c1-c1c[nH]nc1CC2	600
COc1ccc(-n2nc(C(=O)NN)c3ccc4[nH]ncc4c32)cc1	210
CCCCNS(=O)(=O)n1nc(C(N)=O)c2ccc3[nH]ncc3c21	2
COc1ccc(-n2nc(N)c3ccc4[nH]ncc4c32)cc1	> 10000
CCCCNS(=O)(=O)n1nc(C(=O)O)c2c1-c1c[nH]nc1CC2	1200
C=CCONC(=O)c1nn(S(=O)(=O)NCCCC)c2c1ccc1[nH]ncc12	200
